According to patent publication EP3964497A1, “SUBSTITUTED VICINAL DIAMINE COMPOUNDS AND THEIR USE IN THE TREATMENT, AMELIORATION OR PREVENTION OF PAIN” (priority 2020, dated 2022):
Where two headings read alike, the source gives them in different places.

Assays:
[1] = molecular target: T1, δOR (Homo sapiens, UniProt P41143); experiment: competitive radioligand binding with [3H]diprenorphine, membranes of transfected HEK 293T cells
T1 construct: expressed in transfected cells; host or cells: HEK 293T cells, transient transfection, membrane preparation
Procedure: (§1) To verify the subtype selectivity of the described compounds for µOR over δOP and κOR, respectively, the binding affinities of the described examples to the different human opioid receptors in an in-vitro test system were measured.
(§2) For the determination of receptor binding affinity competitive radioligand binding experiments were performed as described in literature (H. Huebner, C. Haubmann, W. Utz, P. Gmeiner, J. Med. Chem., 2000, 43, 756-762). In brief, HEK 293T cells were transiently transfected with the cDNAs coding for the human opioid receptor subtypes µOR, δOR, and kOR, respectively, using a solution of polyethylenimine in PBS (PEI, linear, 25 kDa, Polysciences) as transfection reagent at a 3:1 PEI to cDNA ratio (I. Fish, A. Stoessel, K. Eitel, C. Valant, S. Albold, H. Huebner, D. Moeller, M.J. Clark, R.K. Sunahara, A. Christopoulos, B.K. Shoichet, P. Gmeiner, J. Med. Chem., 2017, 60, 9239-9250). After preparation of membranes, radioligand displacement assays were run in 96-well format at a final volume of 200 µL in binding buffer (50 mM Tris-HCI, 1 mM EDTA, 5 mM MgCl2, 100 µg/mL bacitracin, 5 µg/mL soybean trypsin inhibitor, pH 7.4) with the radioligand [^3H]diprenorphine (specific activity = 31 Ci/mmol) at a final concentration of 0.20-0.30 nM. […] Unspecific binding was determined in the presence of 10 µM of the naloxone. Protein concentrations were determined employing the method of Lowry with bovine serum albumin as standard (O.H. Lowry, N.J. Rosebrough, A.L. Farr, R.J. Randall, J. Biol. Chem., 1951, 193, 265-275). The resulting competition curves of the receptor binding experiments were analyzed by nonlinear regression. The data were initially fit using a sigmoid model to provide IC50 values, which were subsequently transformed to Ki values according to the equation of Cheng and Prusoff (Y.-C. Cheng, W. H. Prusoff, Biochem. Pharmacol., 1973, 22, 3099-3108). Three to seven experiments per compound were performed, with each concentration in triplicate.

[2] = molecular target: T2, κOR (Homo sapiens, UniProt P41145); experiment: as above
T2 construct: expressed in transfected cells; host or cells: HEK 293T cells, transient transfection, membrane preparation
Procedure: as §1
After preparation of membranes, radioligand displacement assays were run in 96-well format at a final volume of 200 µL in binding buffer (50 mM Tris-HCI, 1 mM EDTA, 5 mM MgCl2, 100 µg/mL bacitracin, 5 µg/mL soybean trypsin inhibitor, pH 7.4) with the radioligand [^3H]diprenorphine (specific activity = 31 Ci/mmol) at a final concentration of 0.20-0.30 nM. […] Unspecific binding was determined in the presence of 10 µM of the naloxone. […] The resulting competition curves of the receptor binding experiments were analyzed by nonlinear regression. […] Three to seven experiments per compound were performed, with each concentration in triplicate.

[3] = molecular target: T3, µOR (Homo sapiens, UniProt P35372); experiment: as above; set-up: expressed in transfected cells; host or cells: HEK 293T cells, transient transfection, membrane preparation
Procedure: as §1, §2

[4] = molecular target: T3, µOR; experiment: β-arrestin-2 recruitment, enzyme-fragment complementation assay in HEK-293 cells; format: cell-based; set-up: expressed in transfected cells; host or cells: HEK-293 cells stably expressing EA-tagged β-arrestin-2, transiently transfected with µOR-PK1; details: for Emax: HEK293, relative to the full effect of reference agonist DAMGO [=100%]; for β-arrestin recruitment EC50: mean of 3-8 tests, 90 min incubation, CBA = could not be analyzed (no dose-response curve)
Procedure: (§3) Functionally selective drugs, which are biased towards Gi protein activation over β-arrestin signaling at the µOR are indicated to show an improved side effect profile. Thus, the characterization of the functional properties of the described examples at the µOR were performed by determination of the ligand stimulated G-protein related signaling and β-arrestin recruitment applying cell based in-vitro test systems. Full and partial agonists as well as antagonists for G protein related signaling were identified.
Measurement of β-arrestin-2 recruitment was done applying an enzyme-fragment complementation assay as described previously (C. Gentzsch, K. Seier, A. Drakopoulos, M.-L. Jobin, Y. Lanoiselee, Z. Koszegi, D. Maurel, R. Sounier, H. Huebner, P. Gmeiner, S. Granier, D. Calebiro, M. Decker. Ang. Chem. Int. Ed. 2020, 59, 2-9. J. Hellmann, M. Drabek, J. Yin, J. Gunera, T. Proell, F. Kraus, C.J. Langmead, H. Huebner, D. Weikert, P. Kolb, D.M. Rosenbaum, P. Gmeiner. PNAS 2020, 117, 18059-18067). In brief, HEK-293 cells stably expressing the enzyme acceptor (EA) tagged β-arrestin-2 fusion protein were transiently co-transfected with the ProLink tagged µOR-PK1 After 24 h cells were transferred into 384-well microplates and cultured for further 24 h. To start arrestin recruitment compounds were added to the cells to get a final concentration in a range of 10 pM to 100 µM. After incubation for 90 min reaction was stopped by addition of detection mix. Chemiluminescence was determined in duplicates (3-8 individual experiments for each compound in comparison to the reference agonist DAMGO). Data analysis was done as described above.
(§4) In the above table, the numbers indicate mean EC50 values in nM and Emax values relative to the full effect of reference agonist DAMGO [=100%], respectively and are derived from 3-9 individual experiments for G-protein signaling and 3-8 tests for arrestin recruitment. ND = not determined.

[5] = molecular target: T3, µOR; experiment: G-protein mediated signaling, IP1 accumulation assay (HTRF) in HEK-293T cells with hybrid G-protein Gαqi; format: cell-based; set-up: expressed in transfected cells; host or cells: HEK-293T cells, transient transfection; details: for Emax: HEK-293T, read-out: G-protein signaling Emax; for G-protein signaling EC50: mean of 3-9 experiments, 180 min at 37 °C, CBA = could not be analyzed (no dose-response curve)
Procedure: as §3
The determination of G-protein stimulated µOR activation was measured applying an IP1 accumulation assay as described previously (J. Kruell, S.K. Fehler, L. Hofmann, N. Nebel, S. Maschauer, O. Prante, P. Gmeiner, H. Lanig, H. Huebner, M.R. Heinrich. ChemMedChem 2020, 15, 1175-1186. C. Gentzsch, K. Seier, A. Drakopoulos, M.-L. Jobin, Y. Lanoiselee, Z. Koszegi, D. Maurel, R. Sounier, H. Huebner, P. Gmeiner, S. Granier, D. Calebiro, M. Decker. Ang. Chem. Int. Ed. 2020, 59, 2-9). In brief, HEK-293T cells were grown to confluence of approximately 70% and transiently transfected with the cDNA of the human µOR receptor and the hybrid G-protein Gαqi. After one day cells were seeded into 384-well microplates. For testing cells were incubated with test compounds (final range of concentration from 1 pM up to 10 µM) for 180 min at 37 °C followed by addition of detection reagents. Time resolved fluorescence resonance energy transfer (HTRF) was determined using a microplate reader. Each compound was tested in duplicates in 3-9 individual experiments in comparison to the reference compound DAMGO. The resulting dose response curves were analyzed by nonlinear regression using the algorithms in PRISM 6.0 (GraphPad software, San Diego, CA), fitted with a sigmoid model and normalized to basal activity (0 %) and the maximal effect caused by the reference full agonist DAMGO (100 %).
as §4

[6] = radioligand [3H]diprenorphine, number in brackets = number of experiments, read-out: mean Ki value κOR
[7] = radioligand [3H]diprenorphine, number in brackets = number of experiments, read-out: mean Ki value δOR

SMILES | Ki [1] | Ki [2] | Ki [3] | Emax [4] | β-arrestin recruitment EC50 [4] | EC50 [5] | Emax [5] | binding to δOR (in words) ([1]; statement in text referring to the radioligand binding table) | Ki [2, 6] | Ki [1, 7] | G-protein signaling EC50 [5]
CN(C)[C@H](COC(=O)C=Cc1ccccc1)Cc1ccc(O)cc1 (stereo in doubt) [Comparative Example 2, (S)-2-(Dimethylamino)-3-(4-hydroxyphenyl)propyl cinnamate, reference compound] | 860 nM | 320 nM | 230 nM | – | – | – | – | – | – | – | –
CN(C)[C@H](CNC(=O)C=Cc1ccccc1)Cc1ccc(O)cc1 (stereo in doubt) [Example 1, (S)-N-(2-(Dimethylamino)-3-(4-hydroxyphenyl)propyl)cinnamamide] | 25 nM | – | 13 nM | < 5% | CBA | 7 nM | 63% | high affinity | 120 nM | – | –
CN(C)[C@](C)(CNC(=O)C=Cc1ccccc1)Cc1ccc(O)cc1 (stereo in doubt) [Example 5, (S)-N-(2-(Dimethylamino)-3-(4-hydroxyphenyl)-2-methylpropyl)cinnamamide] | 1300 nM | 970 nM | 310 nM | – | – | – | – | – | – | – | –
CN(C)[C@H](COC(=O)NCCc1ccsc1)Cc1ccc(O)cc1 [Comparative Example 1, (S)-2-(Dimethylamino)-3-(4-hydroxyphenyl)propyl (2-(thiophen-3-yl)ethyl)carbamate formiate, reference compound] | 3000 nM | 3300 nM | 2400 nM | – | – | – | – | – | – | – | –
CN(C)[C@H](CNC(=O)/N=N/c1ccccc1)Cc1ccc(O)cc1 [Comparative Example 3, (S,E)-N-(2-(Dimethylamino)-3-(4-hydroxyphenyl)propyl)-2-phenyldiazene-1-carboxamide formiate, reference compound] | 630 nM | 540 nM | 66 nM | – | – | – | – | – | – | – | –
CN(C)[C@H](CNC(=O)C#Cc1ccccc1)Cc1ccc(O)cc1 [Example 2, (S)-N-(2-(Dimethylamino)-3-(4-hydroxyphenyl)propyl)-3-phenylpropiolamide] | – | – | 18 nM | < 5% | CBA | 22 nM | 42% | – | 230 nM | 140 nM | –
C/C(=C\C(=O)NC[C@H](Cc1ccc(O)cc1)N(C)C)c1ccccc1 [Example 3, (S,E)-N-(2-(Dimethylamino)-3-(4-hydroxyphenyl)propyl)-3-phenylbut-2-enamide] | – | – | 28 nM | < 5% | CBA | 11 nM | 76% | – | 120 nM | 120 nM | –
C/C(=C\c1ccccc1)C(=O)NC[C@H](Cc1ccc(O)cc1)N(C)C [Example 4, (S,E)-N-(2-(Dimethylamino)-3-(4-hydroxyphenyl)propyl)-2-methyl-3-phenylacrylamide] | 49 nM | – | 46 nM | < 5% | CBA | 17 nM | 62% | – | 110 nM | – | –
CN(C)[C@H](CNC(=O)/C=C/c1cccc2ccccc12)Cc1ccc(O)cc1 [Example 6, (S,E)-N-(2-(Dimethylamino)-3-(4-hydroxyphenyl)propyl)-3-(naphthalen-1-yl)acrylamide] | – | 180 nM | – | < 5% | CBA | 20 nM | – | – | – | – | –
Cc1cc(O)cc(C)c1C[C@H](N)CNC(=O)/C=C/c1cccc(C(F)(F)F)c1 [Example 11, (S,E)-N-(2-Amino-3-(4-hydroxy-2,6-dimethylphenyl)propyl)-3-(3-(trifluoromethyl)phenyl)acrylamide formiate] | 360 nM | 220 nM | 19 nM | – | – | – | < 5% | – | – | – | CBA
CN[C@H](CNC(=O)/C=C/c1cccc(C(F)(F)F)c1)Cc1c(C)cc(O)cc1C [Example 12, (S,E)-N-(3-(4-Hydroxy-2,6-dimethylphenyl)-2-(methylamino)propyl)-3-(3-(trifluoromethyl)phenyl)acrylamide formiate] | 310 nM | 310 nM | 12 nM | – | – | – | < 5% | – | – | – | CBA
Cc1cccc(/C=C/C(=O)NC[C@H](Cc2ccc(O)cc2)N(C)C)c1 [Example 13, (S,E)-N-(2-(Dimethylamino)-3-(4-hydroxyphenyl)propyl)-3-(m-tolyl)acrylamide] | – | – | 26 nM | – | – | 41 nM | 78% | – | 500 nM | 300 nM | –
CN(C)[C@H](CNC(=O)/C=C/c1ccc(F)c(C(F)(F)F)c1)Cc1ccc(O)cc1 [Example 16, (S,E)-N-(2-(Dimethylamino)-3-(4-hydroxyphenyl)propyl)-3-(4-fluoro-3-(trifluoromethyl)phenyl)acrylamide formiate] | 250 nM | 600 nM | 23 nM | – | – | 40 nM | 102% | – | – | – | –
